From paper PMC7297889, “In vivo absolute quantification of striatal and extrastriatal D2/3 receptors with [^123I]epidepride SPECT” (EJNMMI Research, 2020)
Several values for one entry are separate records, joined by “and”; a condition that tells them apart may be missing. Equal entries are not always repeated.

Columns and labels:
D2/3 receptors [1] = test: multi-injection SPECT protocol, 2T-5k full kinetic modeling; assay type: in vivo, rat; conditions: mean of 3 rats; for Kd: read-out: appKD
From the text: (§1) 18 male Mdr1a (P-glycoprotein) knock-out (KO) rats, weighing between 380 and 500 g, were employed in the study. Using this rat strain allowed us to study the kinetics of [^123I]epidepride independently of the potentially confounding effect of the P-glycoprotein [30–34]. Of these, 3 rats were employed in an in vivo multi-injection SPECT imaging protocol for absolute D2/3 receptor quantification (SPECT-MI in Table 1). Four rats were employed in an arterial plasma analysis for the study of plasma kinetics of the radiotracer and the estimation of the free parent radiotracer fraction (TLC in Table 1). Four rats were employed in a SPECT experiment with a partial D2/3 receptor saturation design for the determination of Bavail and appKd parameters from an in vivo Scatchard plot (SPECT-PSA in Table 1). Finally, 7 rats were employed in a preliminary study of the effect of a chronic haloperidol treatment on the Bavail and appKd of the D2/3 receptors in rats (SPECT-PSA_HAL for haloperidol-treated and SPECT-PSA_CON for control rats in Table 1, see Additional file 1).
(§2) SPECT scans were performed with a U-SPECT-II camera (MiLabs, Utrecht, Netherlands). In rats that underwent SPECT scans with the multi-injection protocol, two polyethylene catheters (i.d. = 0.58 mm, o.d. = 0.96 mm) were inserted in the left femoral vein and artery for radiotracer administration and blood sampling, respectively. On the other hand, in rats that underwent SPECT scans for the partial saturation protocol, radiotracer injection was performed via a tail vein catheter. SPECT scans were performed under isoflurane anesthesia (3% for induction and 1–2% for maintenance). Body temperature was monitored during the scans and maintained at 37 ± 1 °C by means of a thermostatically controlled heating blanket.
(§3) SPECT image reconstruction was performed using a pixel-ordered subset expectation maximization (P-OSEM, 0.4-mm voxel size, 4 iterations, 6 subsets) algorithm using MiLabs image reconstruction software. Radioactive decay correction was performed, while correction for attenuation or scatter was not. Following reconstruction, dynamic images from the partial saturation experiment were denoised with factor analysis (FA) using Pixies software (Apteryx, Issy-les-Moulineaux, France) as previously described. FA allows the decomposition of a dynamic signal into a few elementary components, termed factors. In this study, 3 factors were retained and the rest of the signal was discarded as noise. SPECT images were processed with PMOD software v3.7 (PMOD Technologies Ltd, Zurich, Switzerland). Averaged images corresponding to the ten first frames of the acquisition were co-registered to a magnetic resonance imaging (MRI) template integrated in PMOD [37]. Transformation matrices were then applied to dynamic images.
A multi-injection protocol for full kinetic modeling of [^123I]epidepride was employed. The scan protocol began with a first injection of the radiotracer at a high-specific activity, followed by a second co-injection of [^123I]epidepride and the unlabeled compound at 180 min and a third injection of the unlabeled compound alone at 240 min. The overall scan protocol included 360 1-min frames (Fig. 1).
The whole multi-injection study TAC data was fitted in with a two-tissue compartment five-parameter model (2T-5k), to estimate K1, k2, kon, koff, and Bavail as previously described. The free, non-metabolized radiotracer fraction in the plasma was used as the input function. During dynamic SPECT acquisitions, 40 arterial blood samples (of 25 μl each) were withdrawn after each radiotracer injection at regular time intervals. Radioactivity was measured in a gamma counting system and expressed in kBq/ml after calibration. […]

D2/3 receptors [2] = test: in vivo partial saturation SPECT study (in vivo Scatchard plot); design: species or system rat; conditions: mean of 4 rats; for Kd: read-out: appKD
From the text: as §1, §2, §3
A partial saturation protocol was employed to estimate Bavail and appKd as recently described for another D2/3 radiotracer based on the original description by Delforge et al., as optimized by Wimberley et al.. Briefly, co-injection of a dose of the unlabeled compound at doses that occupy 50–70% of the receptors allows to form a Scatchard plot when the specifically bound fraction of radiotracer (CS) is plotted against the ratio of CS to the non-displaceable binding at the same region (CS/CND). The intercept to the CS axis provides the Bavail and the inverse of the slope the appKd.
In the partial saturation approach, the cerebellar TAC is employed as an approximation of the non-displaceable binding in the target brain VOIs. Given the differences in the concentration of this binding between the Cer and the target VOIs, as well as the presence of a non-negligible specific binding in the Cer with [^123I]epidepride, the cerebellar TAC has to be corrected. […]

[3] = arterial plasma analysis: metabolite correction and plasma protein binding; assay type: in vivo; conditions: rat arterial plasma, 4 rats
From the text: as §1
The whole multi-injection study TAC data was fitted in with a two-tissue compartment five-parameter model (2T-5k), to estimate K1, k2, kon, koff, and Bavail as previously described. The free, non-metabolized radiotracer fraction in the plasma was used as the input function. During dynamic SPECT acquisitions, 40 arterial blood samples (of 25 μl each) were withdrawn after each radiotracer injection at regular time intervals. Radioactivity was measured in a gamma counting system and expressed in kBq/ml after calibration. To estimate the plasma input function in in vivo SPECT experiments, only whole-blood radioactivity was measured individually and the free, non-metabolized radiotracer fraction was fitted using a model estimated in an independent experiment. Indeed, metabolite correction and plasma protein binding analysis for the estimation of radiotracer plasma input function was performed in an independent group of 4 rats, as previously described The analysis was performed in MATLAB software R2019 (Mathworks, USA).
As described in the “Methods” section describing the multi-injection study protocol, in each dynamic brain SPECT study, only whole-arterial blood radioactivity was measured. The free, non-metabolized radiotracer fraction was estimated by fitting average data from an independent group of four rats in an experiment that was independent from the SPECT scan experiments. The parameters of the bi-exponential function describing the kinetics of the mean percent non-metabolized plasma radiotracer were A1 = 0.61, B1 = − 0.20, A2 = 0.27, B2 = − 0.006. Average percentage of radiotracer bound to plasma proteins was 22% (f1 = 0.22 ± 0.06). […]

D2/3 receptors [4] = test: chronic haloperidol treatment, striatal D2/3 Bavail by [^123I]epidepride partial saturation SPECT; assay type: in vivo, rat; conditions: for increase in Bavail vs vehicle-treated group: haloperidol 1 mg/kg/day 28 days; for Bavail of [^123I]epidepride in haloperidol-treated group: haloperidol 1 mg/kg/day sc 28 days, scan 7 days after, n=3
From the text: as §1
For this purpose, two groups of rats were treated with either haloperidol (1 mg/kg/day, n=3) or vehicle (n=4) for 28 days. A [^123I]epidepride SPECT scan using the partial saturation protocol was performed 7 days (a sufficient period for the complete elimination of haloperidol) after the end of the treatment period to assess neurochemical changes with respect to the D2/3 receptor. The radioactivity doses that were employed are presented in Table 1 (SPECT-PSA_HAL for haloperidol-treated and SPECT-PSA_CON for control rats). Statistical analysis of the difference in the quantitative parameter values between the groups was performed by means of a two-sample t test.
Haloperidol was purchased from Sigma-Aldrich (Buchs, Switzerland). It was dissolved in dimethyl-sulfoxide (DMSO) 50% v/v in water. Osmotic pumps (Alzet, Durect, Cupertino, CA, USA) were employed to continuously deliver the treatment at a dose of 1 mg/kg/day over 28 days. For the pump implantation, rats were anesthetized with isoflurane (3% for induction and 1-2 % for maintenance). Body temperature was monitored during the scans and maintained at 37±1 °C by means of a thermostatically controlled heating blanket. An incision was performed in the lateral abdominal wall and a pump was subcutaneously implanted. Subcutaneous analgesia (0.02 mg/kg/8h sc; Temgesic, Reckitt Benckiser Pharmaceuticals Inc) was administered right before surgery and was continued per os in the drinking water for 48h. For the removal of the osmotic pumps, the same surgical procedure was performed after the end of the treatment period (28 days).

CCN1CCC[C@H]1CNC(=O)c1cc(I)cc(OC)c1OC [[^123I]epidepride]
Bavail (D2/3 receptors [1]; Amy): 2.71 pmol/mL | k2 (D2/3 receptors [1]; Amy): 0.16 min⁻¹ | koff (D2/3 receptors [1]; Amy): 0.0005 s⁻¹ | Κ1 (D2/3 receptors [1]; Amy): 0.38 mL.cm^-3 .min-^1 | Kd (D2/3 receptors [1]; Amy): 0.36 nM | Bavail (D2/3 receptors [1]; CP): 24.22 pmol/mL | k2 (D2/3 receptors [1]; CP): 0.10 min⁻¹ | koff (D2/3 receptors [1]; CP): 0.00067 s⁻¹ | Κ1 (D2/3 receptors [1]; CP): 0.69 mL.cm^-3 .min-^1 | Kd (D2/3 receptors [1]; CP): 0.22 nM | Bavail (D2/3 receptors [1]; Cer): 2.02 pmol/mL | k2 (D2/3 receptors [1]; Cer): 0.20 min⁻¹ | koff (D2/3 receptors [1]; Cer): 0.00033 s⁻¹ | Κ1 (D2/3 receptors [1]; Cer): 0.66 mL.cm^-3 .min-^1 | Kd (D2/3 receptors [1]; Cer): 0.65 nM | Bavail (D2/3 receptors [1]; FC): 20.67 pmol/mL | k2 (D2/3 receptors [1]; FC): 0.09 min⁻¹ | koff (D2/3 receptors [1]; FC): 0.0005 s⁻¹ | Κ1 (D2/3 receptors [1]; FC): 0.40 mL.cm^-3 .min-^1 | Kd (D2/3 receptors [1]; FC): 4.5 nM | Bavail (D2/3 receptors [1]; Hyp): 3.64 pmol/mL | k2 (D2/3 receptors [1]; Hyp): 0.13 min⁻¹ | koff (D2/3 receptors [1]; Hyp): 0.00083 s⁻¹ | Κ1 (D2/3 receptors [1]; Hyp): 0.50 mL.cm^-3 .min-^1 | Kd (D2/3 receptors [1]; Hyp): 0.37 nM | Bavail (D2/3 receptors [1]; InfC): 3.03 pmol/mL | k2 (D2/3 receptors [1]; InfC): 0.17 min⁻¹ | koff (D2/3 receptors [1]; InfC): 0.00067 s⁻¹ | Κ1 (D2/3 receptors [1]; InfC): 0.80 mL.cm^-3 .min-^1 | Kd (D2/3 receptors [1]; InfC): 0.18 nM | Bavail (D2/3 receptors [1]; NAc): 10.18 pmol/mL | k2 (D2/3 receptors [1]; NAc): 0.10 min⁻¹ | koff (D2/3 receptors [1]; NAc): 0.00067 s⁻¹ | Κ1 (D2/3 receptors [1]; NAc): 0.53 mL.cm^-3 .min-^1 | Kd (D2/3 receptors [1]; NAc): 0.15 nM | Bavail (D2/3 receptors [1]; SupC): 3.86 pmol/mL | k2 (D2/3 receptors [1]; SupC): 0.16 min⁻¹ | koff (D2/3 receptors [1]; SupC): 0.00083 s⁻¹ | Κ1 (D2/3 receptors [1]; SupC): 0.70 mL.cm^-3 .min-^1 | Kd (D2/3 receptors [1]; SupC): 0.28 nM | Bavail (D2/3 receptors [1]; VTA): 3.77 pmol/mL | k2 (D2/3 receptors [1]; VTA): 0.14 min⁻¹ | koff (D2/3 receptors [1]; VTA): 0.00067 s⁻¹ | Κ1 (D2/3 receptors [1]; VTA): 0.57 mL.cm^-3 .min-^1 | Kd (D2/3 receptors [1]; VTA): 0.34 nM | Bavail (D2/3 receptors [2]; Amy, fixed appKd): 2.77 pmol/mL | Bavail (D2/3 receptors [2]; CP): 21.25 pmol/mL | Kd (D2/3 receptors [2]; CP): 0.08 nM | Bavail (D2/3 receptors [2]; FC, fixed appKd): 5.15 pmol/mL | Bavail (D2/3 receptors [2]; Hyp, fixed appKd): 3.85 pmol/mL | Bavail (D2/3 receptors [2]; InfC, fixed appKd): 4.46 pmol/mL | Bavail (D2/3 receptors [2]; NAc): 11.75 pmol/mL | Kd (D2/3 receptors [2]; NAc): 0.27 nM | Bavail (D2/3 receptors [2]; SupC, fixed appKd): 3.97 pmol/mL | Bavail (D2/3 receptors [2]; VTA, fixed appKd): 4.01 pmol/mL | fraction unbound ([3]; male, Mdr1a (P-glycoprotein) knock-out, read-out: Average percentage of radiotracer bound to plasma proteins (converted)): 0.78 | A1 of bi-exponential function of mean percent non-metabolized plasma radiotracer [3]: 0.61 | A2 of bi-exponential function of mean percent non-metabolized plasma radiotracer [3]: 0.27 | f1 [3]: 0.22 ± 0.06

O=C(CCCN1CCC(O)(c2ccc(Cl)cc2)CC1)c1ccc(F)cc1 [haloperidol]
increase in Bavail vs vehicle-treated group (D2/3 receptors [4]; left CP, p = 0.07): 17.9% and 17.97% | Bavail of [^123I]epidepride in haloperidol-treated group (D2/3 receptors [4]; left CP): 25.67 ± 2.30 pmol/mL | increase in Bavail vs vehicle-treated group (D2/3 receptors [4]; right CP, p = 0.12): 13.8% and 13.84% | Bavail of [^123I]epidepride in haloperidol-treated group (D2/3 receptors [4]; right CP): 25.33 ± 2.52 pmol/mL
